From DBAASP
Values after ≈ are worked out from the molar mass of the structure shown.

How the values were obtained:
Test in all cases: ≥ marks a high value that may be exact or a test limit, other limits are often not marked, values filed in µg/mL are converted to µM
[1] = tested on: Salmonella typhimurium CCARM 8009
[2] = tested on: Escherichia coli CCARM 1238
[3] = tested on: Staphylococcus aureus KCTC 3881
[4] = tested on: Staphylococcus aureus CCARM 3114
[5] = tested on: Pseudomonas aeruginosa CCARM 2003
[6] = tested on: Bacillus subtilis KCTC 3068
[7] = tested on: Staphylococcus epidermidis KCTC 1917
[8] = tested on: Staphylococcus aureus CCARM 3089
[9] = tested on: Escherichia coli KCTC 2593
[10] = tested on: Bacillus subtilis KCTC 1022
[11] = tested on: Pseudomonas aeruginosa KCTC 2513
[12] = tested on: Acinetobacter baumannii CCARM 12037
[13] = tested on: Acinetobacter baumannii CCARM 12035
[14] = tested on: Pseudomonas aeruginosa CCARM 2002
[15] = tested on: Staphylococcus aureus CCARM 3108
[16] = tested on: Salmonella typhimurium CCARM 8007
[17] = tested on: Staphylococcus aureus CCARM 3090
[18] = tested on: Escherichia coli KCTC 2571
[19] = tested on: Pseudomonas aeruginosa CCARM 2095
[20] = tested on: Acinetobacter baumannii CCARM 12036
[21] = tested on: Bacillus subtilis KCTC 1021
[22] = tested on: Acinetobacter baumannii CCARM 12005
[23] = tested on: Staphylococcus aureus KCTC 1621
[24] = tested on: Staphylococcus aureus KCTC 1916
[25] = tested on: Escherichia coli CCARM 1229
[26] = tested on: Staphylococcus aureus CCARM 3126
[27] = tested on: Pseudomonas aeruginosa KCTC 2004
[28] = tested on: Pseudomonas aeruginosa CCARM 2163
[29] = tested on: Salmonella typhimurium CCARM 8003
[30] = tested on: Escherichia coli KCTC 1682
[31] = tested on: Salmonella typhimurium KCTC 1926
[32] = tested on: Pseudomonas aeruginosa KCTC 1637
[33] = tested on: Escherichia coli ATCC 27325
[34] = tested on: Cryptococcus neoformans ATCC 34881
[35] = tested on: Saccharomyces cerevisiae ATCC 44774
[36] = tested on: Bacillus subtilis ATCC 62037
[37] = tested on: Candida albicans ATCC 10231
[38] = tested on: Salmonella enterica subsp. enterica serovar Enteritidis ATCC 13076
[39] = tested on: Streptococcus mutans ATCC 25175
[40] = tested on: Staphylococcus aureus ATCC 15752
[41] = tested on: Pseudomonas putida ATCC 17426

Row | SMILES | MIC [1] [µM] | MIC [2] [µM] | MIC [3] [µM] | MIC [4] [µM] | MIC [5] [µM] | MIC [6] [µM] | MIC [7] [µM] | MIC [8] [µM] | MIC [9] [µM] | MIC [10] [µM] | MIC [11] [µM] | MIC [12] [µM] | MIC [13] [µM] | MIC [14] [µM] | MIC [15] [µM] | MIC [16] [µM] | MIC [17] [µM] | MIC [18] [µM] | MIC [19] [µM] | MIC [20] [µM] | further results
1 | CC[C@H](C)[C@H](NC(=O)CNC(=O)[C@H](CCCN=C(N)N)NC(=O)[C@H](C)NC(=O)[C@@H](NC(=O)[C@H](Cc1cnc[nH]1)NC(=O)[C@H](Cc1cnc[nH]1)NC(=O)[C@H](Cc1ccccc1)NC(=O)[C@@H](N)Cc1ccccc1)[C@@H](C)CC)C(=O)N[C@H](C(=O)N[C@@H](Cc1cnc[nH]1)C(=O)N[C@H](C(=O)NCC(=O)N[C@@H](CCCCN)C(=O)N[C@H](C(=O)N[C@H](C(=O)N[C@@H](Cc1cnc[nH]1)C(=O)N[C@@H](CCCN=C(N)N)C(=O)N[C@@H](CC(C)C)C(=O)N[C@H](C(=O)N[C@H](C(=O)NCC(=O)O)[C@@H](C)O)C(C)C)[C@@H](C)CC)[C@@H](C)O)C(C)C)C(C)C [FFHHIARGIVHVGKTIHRLVTG] | 16 (≈ 39.9 µg/mL) | ≥ 32 | 4 (≈ 9.98 µg/mL) | 16 (≈ 39.9 µg/mL) | 4 (≈ 9.98 µg/mL) | 4 (≈ 9.98 µg/mL) | 4 (≈ 9.98 µg/mL) | ≥ 32 | 2 (≈ 4.99 µg/mL) | 2 (≈ 4.99 µg/mL) | 16 (≈ 39.9 µg/mL) | 4 (≈ 9.98 µg/mL) | 4 (≈ 9.98 µg/mL) | 4 (≈ 9.98 µg/mL) | 16 (≈ 39.9 µg/mL) | 16 (≈ 39.9 µg/mL) | ≥ 32 | 4 (≈ 9.98 µg/mL) | 4 (≈ 9.98 µg/mL) | 4 (≈ 9.98 µg/mL) | MIC [21]: 16 µM (≈ 39.9 µg/mL); MIC [22]: 4 µM (≈ 9.98 µg/mL); MIC [23]: 4 µM (≈ 9.98 µg/mL); MIC [24]: 2 µM (≈ 4.99 µg/mL); MIC [25]: ≥ 32 µM; MIC [26]: 16 µM (≈ 39.9 µg/mL); MIC [27]: 8 µM (≈ 20 µg/mL); MIC [28]: 4 µM (≈ 9.98 µg/mL); MIC [29]: ≥ 32 µM; MIC [30]: 2 µM (≈ 4.99 µg/mL); MIC [31]: 16 µM (≈ 39.9 µg/mL); MIC [32]: 4 µM (≈ 9.98 µg/mL)
2 | CC[C@H](C)[C@H](NC(=O)CNC(=O)[C@H](CCCN=C(N)N)NC(=O)[C@H](Cc1ccccc1)NC(=O)[C@@H](NC(=O)[C@H](Cc1cnc[nH]1)NC(=O)[C@H](Cc1cnc[nH]1)NC(=O)[C@H](CCCCN)NC(=O)[C@@H](N)Cc1ccccc1)[C@@H](C)CC)C(=O)N[C@H](C(=O)N[C@@H](Cc1cnc[nH]1)C(=O)N[C@H](C(=O)NCC(=O)N[C@@H](CCCCN)C(=O)N[C@H](C(=O)N[C@H](C(=O)N[C@@H](Cc1cnc[nH]1)C(=O)N[C@@H](CCCN=C(N)N)C(=O)N[C@@H](CC(C)C)C(=O)N[C@H](C(=O)N[C@H](C(=O)NCC(=O)O)[C@@H](C)O)C(C)C)[C@@H](C)CC)[C@@H](C)O)C(C)C)C(C)C [FKHHIFRGIVHVGKTIHRLVTG] | 16 (≈ 40.8 µg/mL) | 16 (≈ 40.8 µg/mL) | 2 (≈ 5.11 µg/mL) | 16 (≈ 40.8 µg/mL) | 2 (≈ 5.11 µg/mL) | 4 (≈ 10.2 µg/mL) | 2 (≈ 5.11 µg/mL) | 16 (≈ 40.8 µg/mL) | 2 (≈ 5.11 µg/mL) | 1 (≈ 2.55 µg/mL) | 8 (≈ 20.4 µg/mL) | 2 (≈ 5.11 µg/mL) | 2 (≈ 5.11 µg/mL) | 2 (≈ 5.11 µg/mL) | 16 (≈ 40.8 µg/mL) | 16 (≈ 40.8 µg/mL) | 16 (≈ 40.8 µg/mL) | 2 (≈ 5.11 µg/mL) | 2 (≈ 5.11 µg/mL) | 2 (≈ 5.11 µg/mL) | MIC [21]: 4 µM (≈ 10.2 µg/mL); MIC [22]: 2 µM (≈ 5.11 µg/mL); MIC [23]: 4 µM (≈ 10.2 µg/mL); MIC [24]: 2 µM (≈ 5.11 µg/mL); MIC [25]: 16 µM (≈ 40.8 µg/mL); MIC [26]: 16 µM (≈ 40.8 µg/mL); MIC [27]: 8 µM (≈ 20.4 µg/mL); MIC [28]: 2 µM (≈ 5.11 µg/mL); MIC [29]: 16 µM (≈ 40.8 µg/mL); MIC [30]: 4 µM (≈ 10.2 µg/mL); MIC [31]: 8 µM (≈ 20.4 µg/mL); MIC [32]: 4 µM (≈ 10.2 µg/mL)
3 | CC[C@H](C)[C@H](NC(=O)CNC(=O)[C@H](CCCN=C(N)N)NC(=O)[C@H](Cc1ccccc1)NC(=O)[C@@H](NC(=O)[C@H](Cc1cnc[nH]1)NC(=O)[C@H](Cc1cnc[nH]1)NC(=O)[C@H](Cc1ccccc1)NC(=O)[C@@H](N)CCCCN)[C@@H](C)CC)C(=O)N[C@@H](CCCCN)C(=O)N[C@@H](Cc1cnc[nH]1)C(=O)N[C@H](C(=O)NCC(=O)N[C@@H](CCCCN)C(=O)N[C@H](C(=O)N[C@H](C(=O)N[C@@H](Cc1cnc[nH]1)C(=O)N[C@@H](CCCN=C(N)N)C(=O)N[C@@H](CC(C)C)C(=O)N[C@H](C(=O)N[C@H](C(=O)NCC(=O)O)[C@@H](C)O)C(C)C)[C@@H](C)CC)[C@@H](C)O)C(C)C [KFHHIFRGIKHVGKTIHRLVTG] | 8 (≈ 20.7 µg/mL) | 4 (≈ 10.3 µg/mL) | 2 (≈ 5.16 µg/mL) | 8 (≈ 20.7 µg/mL) | 2 (≈ 5.16 µg/mL) | 1 (≈ 2.58 µg/mL) | 1 (≈ 2.58 µg/mL) | 4 (≈ 10.3 µg/mL) | 2 (≈ 5.16 µg/mL) | 2 (≈ 5.16 µg/mL) | 2 (≈ 5.16 µg/mL) | 2 (≈ 5.16 µg/mL) | 2 (≈ 5.16 µg/mL) | 2 (≈ 5.16 µg/mL) | 4 (≈ 10.3 µg/mL) | 8 (≈ 20.7 µg/mL) | 4 (≈ 10.3 µg/mL) | 2 (≈ 5.16 µg/mL) | 2 (≈ 5.16 µg/mL) | 2 (≈ 5.16 µg/mL) | MIC [21]: 4 µM (≈ 10.3 µg/mL); MIC [22]: 2 µM (≈ 5.16 µg/mL); MIC [23]: 2 µM (≈ 5.16 µg/mL); MIC [24]: 2 µM (≈ 5.16 µg/mL); MIC [25]: 4 µM (≈ 10.3 µg/mL); MIC [26]: 4 µM (≈ 10.3 µg/mL); MIC [27]: 2 µM (≈ 5.16 µg/mL); MIC [28]: 2 µM (≈ 5.16 µg/mL); MIC [29]: 8 µM (≈ 20.7 µg/mL); MIC [30]: 1 µM (≈ 2.58 µg/mL); MIC [31]: 1 µM (≈ 2.58 µg/mL); MIC [32]: 1 µM (≈ 2.58 µg/mL)
4 | CC(C)[C@H](NC(=O)[C@H](CCCCN)NC(=O)CNC(=O)CNC(=O)[C@H](CCC(N)=O)NC(=O)[C@H](CCCCN)NC(=O)CNC(=O)[C@H](CCCN=C(N)N)NC(=O)CNC(=O)[C@@H](N)CCCCN)C(=O)N[C@@H](CCCN=C(N)N)C(=O)N[C@@H](C)C(=O)N[C@@H](CCCCN)C(=O)N[C@@H](C)C(=O)N[C@@H](CCCCN)C(=O)O [KGRGKQGGKVRAKAK] |  |  |  |  |  |  |  |  |  |  |  |  |  |  |  |  |  |  |  |  | MIC [33]: 0.637 µM (≈ 1 µg/mL); MIC [34]: 0.637 µM (≈ 1 µg/mL); MIC [35]: 0.637 µM (≈ 1 µg/mL); MIC [36]: 0.637 µM (≈ 1 µg/mL); MIC [37]: 0.637 µM (≈ 1 µg/mL); MIC [38]: 2.55 µM (≈ 4 µg/mL); MIC [39]: 1.27 µM (≈ 2 µg/mL); MIC [40]: 2.55 µM (≈ 4 µg/mL); MIC [41]: 0.637 µM (≈ 1 µg/mL)
